Consider one molecule from patent publication US12023330B2, “Use of manzamines as antiproliferative agent” (priority 2020, dated 2024).

In the test the test system is p53, p21, cyclin D1, total Rb, phospho-Rb. Briefly: Protein expression analysis of cell cycle regulatory proteins. Particulars: 2 and 4 μM, 48 h. The class given is cell-based, human. The text has this: Molecular Targets of Manzamine A (1). HeLa, SiHa and CaSki cell lines represent the most common form of cervical cancer infected by the HPV type 16 (SiHa and CaSki) and 18 (HeLa). Cervical cancer is primarily aggravated by the sustained expression of HPV-derived E6 and E7 oncogenes utilizing distinct mechanisms that affect cell-cycle checkpoints. For instance, E6 promotes p53 degradation, while E7 is associated with phosphorylation of retinoblastoma (Rb) proteins. See (22) Huh, K.; Zhou, X.; Hayakawa, H.; Cho, J. Y.; Libermann, T. A.; Jin, J.; Harper, J. W.; Munger, K. J. Virol. 2007, 81, 9737-9747 and Talis, A. L.; Huibregtse, J. M.; Howley, P. M. J. Biol. Chem. 1998, 273, 6439-6445. Both p53 and Rb are tumor suppressor genes and play a critical role in maintaining cell cycle regulation. Additionally, interaction of cyclin D1 with Rb protein and their expression levels correlate positively in association with tumorigenesis. Therefore, we sought to examine the molecular targets of manzamine A leading to anti-cancer activity in cervical cancer. […] Following the overnight attachment of 1×10^6 cells/well, the cells were treated with manzamine A (1) at 2 and 4 μM concentrations and incubated for 48 h. Cell lysates were prepared for protein analysis. […] However, detailed mechanistic studies of manzamine A determining anti-cancer effect are required to further substantiate these observations.
Protein Expression Analysis. C33A, HeLa, SiHa and CaSki cells were seeded at a density of 1×10^6 cells/100 mm petri dish. The next day, the cells were treated with 2 μM or 4 μM concentrations of manzamine A (1) or with 10, 20, or 40 μM concentrations with apigenin (Sigma, MO) and incubated for 48 hours. At the given time-point, the cells were harvested by trypsinization, washed with PBS, and lysed using radioimmunoprecipitation assay (RIPA) buffer containing a cocktail of protease inhibitors (Sigma, MO) to extract protein. Following quantification by colorimetric assay (Bio-Rad), equal amount of protein was loaded on to SDS-polyacrylamide gel and transferred to polyvinylidene difluoride (PVDF) membrane, which was blocked in 5% non-fat dry milk in tris-buffered saline with tween-20 (TBST) and incubated with primary antibody against p53, p21, Cyclin D1, SIX1, GAPDH (Cell signaling) or CK2α (R&D Systems) at a 1:500 dilution. For total CK2a, Rb and pRb, the blocking and antibody dilutions were made in 3% bovine serum albumin (BSA). The membrane was washed with TBST and incubated with secondary IgG HRP conjugate at 1:2000 dilution. The specific band of the protein was visualized with chemiluminescence reagent exposed onto BioMax Film (Kodak) and ChemoDoc-it^2 imager (UVP).

Regarding `O[C@]12C=C(c3nccc4c3[nH]c3ccccc34)[C@@H]3CCN(CCCC/C=C\CC1)C[C@@]31C[C@@H]3/C=C\CCCCN3[C@H]12` [manzamine A], under “C33A”, the p21 protein level result is listed as “not-detectable” and the p53 protein level entry was “did not show any change”. In addition, for the setting “HeLa”, the p21 level entry is reported as “remains unchanged” and the p53 level result was “marginal increase”. Under “SiHa and CaSki”, the “cyclin D1, total Rb, and phospho-Rb protein level” value is listed as “inhibition”; the “p53 and p21 protein level” value is reported as “increase”.
